Legend:
Type in all cases: functional
[1] = test system: Staphylococcus aureus; assay: Antibacterial activity against methicillin-resistant Staphylococcus aureus ATCC 33592 assessed as reduction in bacterial growth measured for 24 hrs by CLSI protocol based two-fold serial dilution method
[2] = test system: Staphylococcus aureus; assay: Synergistic antimicrobial activity against methicillin resistant Staphylococcus aureus assessed as fractional inhibitory concentration index incubated for 24 hrs in presence of Oxacillin by checkerboard assay
[3] = test system: Staphylococcus aureus; assay: Synergistic antibacterial activity against methicillin-resistant Staphylococcus aureus assessed as fractional inhibitory concentration index incubated for 24 hrs in presence of cefazolin by checkerboard assay
[4] = test system: Staphylococcus aureus; assay: Synergistic antibacterial activity against methicillin-resistant Staphylococcus aureus assessed as fractional inhibitory concentration index incubated for 24 hrs in presence of Nafcillin by checkerboard assay
[5] = test system: Staphylococcus aureus; assay: Synergistic antibacterial activity against methicillin-resistant Staphylococcus aureus assessed as fractional inhibitory concentration index in presence of cefoxitin
[6] = test system: Staphylococcus aureus; assay: Synergistic antimicrobial activity against methicillin-resistant Staphylococcus aureus assessed as fractional inhibitory concentration index in presence of amoxicillin

Oc1cc(O)c2c(c1)O[C@H](c1ccc(O)c(O)c1)[C@@H](O)C2 [CIANIDANOL]
MIC [1]: > 1020 µg/mL

Cc1cc(O)c2c(=O)c3c(O)cc(O)c4c5c(O)cc(O)c6c(=O)c7c(O)cc(C)c8c1c2c(c34)c(c78)c65 [HYPERICIN]
fractional inhibitory concentration index (FICI) [2]: 0.1
fractional inhibitory concentration index (FICI) [3]: 0.19
fractional inhibitory concentration index (FICI) [4]: 0.19

CC1(C)CCC2=C(O1)c1ccccc1C(=O)C2=O [LAPACHONE]
fractional inhibitory concentration index (FICI) [5]: 0.25
fractional inhibitory concentration index (FICI) [6]: 0.07
